Laboratory results published in ChEMBL document CHEMBL5316327, “Design and Synthesis of Orally Active Quinolyl Pyrazinamides as Sigma 2 Receptor Ligands for the Treatment of Pancreatic Cancer” (J Med Chem, 2023).
The source made the active and inactive calls. The calls are words filed in the database; no cut-off is given here.

Experiments:
[1] = target: Sigma intracellular receptor 2 (Homo sapiens, UniProt Q5BJF2); test: Displacement of [3H][…]ditolylguanidine from human sigma 2 receptor transfected in human HEK293T cells assessed as inhibition constant by radioligand competition binding assay; format: cell-based
Sigma intracellular receptor 2, sequence (Q5BJF2 whole entry): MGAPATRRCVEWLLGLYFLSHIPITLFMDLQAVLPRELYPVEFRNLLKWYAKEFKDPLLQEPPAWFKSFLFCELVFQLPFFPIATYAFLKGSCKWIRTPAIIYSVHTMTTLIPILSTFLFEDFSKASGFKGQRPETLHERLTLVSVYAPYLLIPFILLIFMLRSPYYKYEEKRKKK

MIA PaCa-2 [2] = test: cells; conditions: Homo sapiens, MIA PaCa-2, 72 h
[3] = target: Sigma non-opioid intracellular receptor 1 (Homo sapiens, UniProt Q99720); test: Displacement of [3H](+)-pentazocine from human sigma 1 receptor transfected in human HEK293T cells assessed as inhibition constant by radioligand competition binding assay; format: cell-based
Sigma non-opioid intracellular receptor 1, sequence (Q99720 whole entry): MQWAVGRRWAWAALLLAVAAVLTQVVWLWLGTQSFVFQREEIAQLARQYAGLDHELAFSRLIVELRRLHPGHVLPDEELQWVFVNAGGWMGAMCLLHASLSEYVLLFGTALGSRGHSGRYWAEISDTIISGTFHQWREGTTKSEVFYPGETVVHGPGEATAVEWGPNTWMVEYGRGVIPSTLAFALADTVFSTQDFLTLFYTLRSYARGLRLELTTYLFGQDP

MIA PaCa-2 [4] = test: Upregulation of GRP78 in human MIA PaCa-2 cells at 10 to 30 uM measured after 24 hrs by Western blot analysis; format: functional, cell-based; conditions: dose 10-30 µM
[5] = Metabolic stability in human liver microsomes assessed as half life at 10 uM measured upto 60 mins in presence of NADPH by LC-MS/MS analysis; format: ADME, Microsome; conditions: for t1/2: microsomes, 1 h, 10 µM
[6] = Metabolic stability in mouse liver microsomes assessed as half life at 10 uM measured upto 60 mins in presence of NADPH by LC-MS/MS analysis; format: ADME, Microsome; conditions: 1 h
[7] = Cytotoxicity against HPDE cells measured after 72 hrs by MTT assay; format: toxicity, cell-based; conditions: human
[8] = Cytotoxicity against HEK293 cells measured after 72 hrs by MTT assay; format: toxicity, cell-based; conditions: human

Compound	Ki [1] [nM]	IC50 (MIA PaCa-2 [2]) [nM]	Ki [3] [nM]	other results
CCN(CC)CCCC(C)Nc1cnc(C(=O)Nc2cccc3cc(C)cnc23)cn1 (centres undefined)	16	2300	169	
CCN(CC)CCCC(C)Nc1cnc(C(=O)Nc2cc(C(F)(F)F)cc3cccnc23)cn1 (centres undefined)	155	4900	385	
CCN(CC)CCCC(C)NCC(=O)Nc1cc(C)cc2cccnc12 (centres undefined)	52	> 30000	463	
CCN(CC)CCCC(C)Nc1cnc(C(=O)Nc2ccc(C)c3cccnc23)cn1 (centres undefined)	42	1700	398	
Cc1cc(NC(=O)c2cnc(N3CCN(CCN)CC3)cn2)c2ncccc2c1	129	7400	166	
CN(C)CCNc1cnc(C(=O)Nc2cc(F)cc3cccnc23)cn1	471	1400	627	
COCCNc1cnc(C(=O)Nc2cc(F)cc3cccnc23)cn1		1200		
CCN(CC)CCCC(C)Nc1cnc(C(=O)Nc2cc(C#N)cc3cccnc23)cn1 (centres undefined)	108	10100	405	
CCN(CC)CCCC(C)Nc1cnc(C(=O)Nc2cc(Cl)cc3cccnc23)cn1 (centres undefined)	14	1800	95	
O=C(CN1CCC(CN2Cc3ccccc3C2=O)CC1)c1ccc(F)cc1				Activity (MIA PaCa-2 [4]): Active
CCN(CC)CCCC(C)Nc1cnc(C(=O)Nc2cccc3ccc(C)nc23)cn1 (centres undefined)	44	9900	233	
CCN(CC)CCCC(C)Nc1cnc(C(=O)Nc2cccc3ccc(OC)nc23)cn1 (centres undefined)	13	1900	67	half-life at 10 µM ([5]; liver microsomes): > 60 min; t1/2 [6]: 54 min
CCN(CC)CCCC(C)Nc1cnc(C(=O)Nc2c(OC)ccc3cccnc23)cn1 (centres undefined)	1630	> 30000		
CCN(CC)CCCC(C)Nc1cnc(C(=O)Nc2cc(F)c(Cl)c3cccnc23)cn1 (centres undefined)	28	3900	122	
CCN(CCO)CCCC(C)Nc1cnc(C(=O)Nc2cc(C)cc3cccnc23)cn1 (centres undefined)	71	9500	159	
Cc1cc(NC(=O)c2cnc(S(=O)(=O)NCCN(C)C)cn2)c2ncccc2c1	2150	600	508	t1/2 [6]: 6 min
O=C(Nc1cc(F)cc2cccnc12)c1cnc(NCCN2CCS(=O)(=O)CC2)cn1	3770	> 30000	2290	
CCN(CC)CCCC(C)Nc1cnc(C(=O)Nc2c(C)ccc3cccnc23)cn1 (centres undefined)	2660	> 30000		
CC(C)CS(=O)(=O)Nc1cnc(C(=O)Nc2cc(F)cc3cccnc23)cn1		> 30000		
CCN(CC)CCCC(C)Nc1cnc(C(=O)Nc2ccc(OC)c3ccc(OC)nc23)cn1 (centres undefined)	70	2900	132	
CCN(CC)CCCC(C)Nc1cnc(C(=O)Nc2cc(C)c(Cl)c3cccnc23)cn1 (centres undefined)	36	3200	67	
CCN(CC)CCCC(C)Nc1cnc(C(=O)Nc2cc(OC)cc3cccnc23)cn1 (centres undefined)	13	2300	137	
CCN(CC)CCCC(C)Nc1ccc(S(=O)(=O)Nc2cc(F)cc3cccnc23)nc1 (centres undefined)	38	3800	188	t1/2 [5]: 39.2 min; t1/2 [6]: 15 min

Compound	Ki [1] [nM]	IC50 (MIA PaCa-2 [2]) [nM]	Ki [3] [nM]	other results
Nc1ccn([C@@H]2O[C@H](CO)[C@@H](O)C2(F)F)c(=O)n1 [GEMCITABINE]				IC50 at 72 h [7]: 1 nM; IC50 at 72 h [8]: 100 nM
CCN(CC)CCCC(C)Nc1cnc(C(=O)Nc2cc(C)cc3cccnc23)cn1 (centres undefined)	85	1100	250	t1/2 [6]: 21 min
O=C(Nc1cc(F)cc2cccnc12)c1cnc(NS(=O)(=O)CCC(F)(F)F)cn1		> 30000		
CCN(CC)CCCC(C)Nc1cnc(CNc2cc(F)cc3cccnc23)cn1 (centres undefined)	65	> 30000	1460	
O=C(Nc1cc(F)cc2cccnc12)c1cnc(NCCN2CCCC2)cn1	165	2000	208	
CCN(CC)CCCC(C)Nc1cnc(C(=O)Nc2cccc3c(Cl)ccnc23)cn1 (centres undefined)	20	3400	59	
Cc1cc(NC(=O)c2cnc(NCCN3CCNCC3)cn2)c2ncccc2c1	400	15600	677	
Fc1ccc(-n2cc(CCCCN3CCC4(CC3)OCc3ccccc34)c3ccccc32)cc1				Activity (MIA PaCa-2 [4]): Active
CCN(CC)CCCC(C)Nc1cnc(C(=O)Nc2cccc3ccc(Cl)nc23)cn1 (centres undefined)	12	4900	83	
CCN(CC)CCCC(C)Nc1nc(C(=O)Nc2cc(F)cc3cccnc23)cs1 (centres undefined)	32	1500	159	t1/2 [5]: 23 min; t1/2 [6]: 3.3 min
O=C(CCNc1cnc(C(=O)Nc2cc(F)cc3cccnc23)cn1)NO		20000		
CCN(CC)CCCC(C)Nc1cnc(C(=O)Nc2cc(Br)cc3cccnc23)cn1 (centres undefined)	27	1600	46	
CCN(CC)CCCC(C)Nc1cnc(C(=O)Nc2ccc(OC)c3cccnc23)cn1 (centres undefined)	40	6800	317	
CN(C)CCOc1cnc(C(=O)Nc2cc(F)cc3cccnc23)cn1	1340	600	112	
CN(C)CCCNc1cnc(C(=O)Nc2cc(F)cc3cccnc23)cn1	105	2400	110	
CCCNc1cnc(C(=O)Nc2cc(F)cc3cccnc23)cn1		2600		
CCN(CC)CCCC(C)Nc1cnc(C(=O)Nc2cccc3cccnc23)cn1 (centres undefined)	22	3700	196	
CCN(CC)CCCC(C)Nc1cnc(C(=O)Nc2cccc3cc(Cl)cnc23)cn1 (centres undefined)	51	3800	155	
CCN(CC)CCCC(C)Nc1cnc(C(=O)Nc2cc(C3CC3)cc3cccnc23)cn1 (centres undefined)	27	3000	71	
CCN(CC)CCCC(C)Nc1cnc(C(=O)Nc2ccc(Cl)c3ccc(OC)nc23)cn1 (centres undefined)	79	5400	356	
CCN(CC)CCCC(C)Nc1cnc(C(=O)Nc2ccc(F)c3cccnc23)cn1 (centres undefined)	18	3000	212	
Cc1cc(NC(=O)c2cnc(OC3CCNCC3)cn2)c2ncccc2c1	134	6500	336	
CCN(CC)CCCC(C)Nc1cnc(C(=O)Nc2cc(O)cc3cccnc23)cn1 (centres undefined)	458	7900	1270	
